We go through eight substances from patent publication US11186613B2, “Solid-phase support comprising IgG-binding peptide, and method for separating IgG” (Kagoshima University, priority 2016, dated 2021).

Like-named read-outs stand apart in the source and are kept apart here. Bridges are numbered along the chain shown (N, C = ends). Primed or numbered codes have the meaning given here. Where no end group is shown, it is not given here. The star is where a group is joined. Biotin = O=C1N[C@H]2[C@H](CS[C@H]2CCCCC(=O)*)N1; Fmoc = O=C(OCC1c2ccccc2-c2ccccc21)*; PEG4′ = not defined here

One data set concerns the target IgG. Put plainly: Affinity analysis of IgG-binding peptides by surface plasmon resonance (BIAcore T200), IgG immobilized on sensor chip. Conditions: for ka / kd: peptide 10 nM to 2 μM, HBS-EP buffer pH 7.0. The procedure:
Affinity analysis of the purified IgG-binding peptide was carried out according to the following method. Equal amounts of 0.4 M 1-ethyl-3-(3-dimethylaminopropyl)-carbodiimide (EDC) and 0.1 M sulfo-N-hydroxysuccinimide (sulfo-NHS) were mixed and injected onto a CMS sensor chip, which was set in BIAcoreT200 (GE healthcare), at a flow rate of […] for 7 min to activate the sensor chip, and then the IgG was immobilized on the sensor chip under conditions of pH 4.0 (10 mM Na acetate) so as to give an immobilized amount of 4000 to 5000 in RU value. The binding reaction was monitored by injecting the peptide in a concentration from 10 nM to 2 μM at a flow rate of […] for 180 sec while using an HBS-EP buffer (0.01 M HEPES, 0.15 M NaCl, 0.005% TWEEN 20, 3 mM EDTA, pH 7.0), and then the dissociation reaction was measured by washing with the buffer for 600 sec. Binding parameters were analyzed using BlAevalution T100 software.

Data set [1] has as its system human serum-derived γ-globulin. Kind of data set: Evaluation of alkali resistance: DBC after repeated 0.1 M sodium hydroxide treatment. It counts as physicochemical. Conditions: five 0.1 M sodium hydroxide treatments. As for the experimental part:
FIG. 4 illustrates measurement results of DBC of an IgG-binding peptide cross-linked via a linker, prepared in Example 2, and an IgG-binding peptide cross-linked by disulfide, prepared in Comparative Example 1, both of which were treated with sodium hydroxide.
To a 1-mg peptide-immobilized 1-mL column prepared by the same method as in Example 3, 5 mL of 0.1 M sodium hydroxide solution was fed. The column was then washed with the adsorption solution and DBC was measured at a flow rate of 1 mL/min as in Example 5. Subsequently, a cycle of the treatment with the sodium hydroxide solution and the DBC measurement was repeated five times to evaluate the alkali resistance. The variation rate of DBC was determined based on the DBC before the sodium hydroxide treatment as 100%.
As Comparative Example 1, a column with 1 mg of a peptide cross-linked by a disulfide bond immobilized thereon was prepared, and the alkali resistance evaluation was carried out as in Example 5.

For data set [2], the system named is human-derived serum γ-globulin. Kind of data set: Competitive elution with peptide from peptide-immobilized column, SDS-PAGE. Conditions: 2.5 mL of 0.4 mg/mL peptide solution; bands around 25 kDa and 50 kDa on SDS-PAGE. The procedure: FIG. 2 illustrates results of SDS-PAGE of fractions fractionated in 0.5 mL that are obtained by eluting proteins with citric acid or the IgG-binding peptide from the column with immobilized peptide prepared in Example 3. The proteins were detected by CBB staining.
To the column prepared by the same method as in Example 3, 1 mg of human-derived serum γ-globulin was fed to adsorb the globulin thereto. The column was washed with the adsorption solution, and then 2.5 mL of a 0.4 mg/mL solution of Peptide a prepared in Example 2 dissolved in the adsorption solution was fed to the column. Each fraction fractionated in 0.5 mL was subjected to SDS-PAGE under reductive conditions in accordance with an ordinary method. Proteins were detected by CBB staining. For comparison, similar operations were carried out also for citric acid elution.

The subject of data set [3] is human serum-derived γ-globulin. Put plainly: Separation of human serum-derived γ-globulin on peptide-immobilized column, acidic elution. To be noted: 1 mg peptide on NHS-activated 1-mL column; elution 20 mM citric acid pH 2.5. As for the experimental part: FIG. 1 illustrates a result of a case where human serum-derived γ-globulin (Wako) was adsorbed to a column with immobilized peptide prepared in Example 3 and eluted with an acidic elution solution (20 mM citric acid, pH 2.5). The horizontal axis represents the volume of the elution liquid and the vertical axis represents the […] concentration measured by absorbance at 280 nm.
A dichloroacetone-cross-linked peptide was immobilized to an NHS-activated prepacked column (GE Healthcare) to carry out various evaluations to assess whether the dichloroacetone-cross-linked peptide can be used as an affinity ligand for human antibody purification.
The peptide-immobilized column was prepared by the following procedures. A syringe was used to feed a solution.
To a 1-mL capacity NHS-activated prepacked column, 5 mL of 1 mM hydrochloric acid was fed to remove an isopropanol solution in the column. […]
The prepared peptide-immobilized column was connected to a liquid chromatography system AKTAexplore (GE Healthcare) and equilibrated with the adsorption solution. […] The elution of proteins from the column was detected by absorbance at 280 nm. […]

[4] abbreviates: SPR, 1:1 binding model, read-out: KD (nM) 1:1 binding.
Where [5] appears, read: SPR, equilibrium value, read-out: KD (nM) Equilibrium value.

A word on the Kd: it is the free concentration of one partner at which half of the binding sites on the other are occupied at equilibrium, for simple one-to-one binding. With “GPRCAYH(Xaa1)GELVWCSFH (SEQ ID NO:4, wherein Xaa1 was arginine and the C-terminus was amidated) (GPRCAYHRGELVWCSFH-NH2; not fully specified (N-terminus, bridges); cysteine pairing not given here) [SEQ ID NO: 4, wherein Xaa1 is R]”, the Kd on IgG (setting [4]) came out at 42 nM; at IgG (setting [5]), 56 nM. This substance gave a ka in the data set on IgG (SPR) of 8.40E+05. The kd on IgG (SPR) was determined as 0.0353.

For the substance “GPDCAYH(Xaa1)GELVWCTFH (SEQ ID NO:2, wherein Xaa1 was lysine, and the C-terminus was amidated) (GPDCAYHXGELVWCTFH; Xaa1=K; C-terminal amide; (8)..(8) Xaa is arginine, lysine, leucine, asparagine, or derivative thereof) [SEQ ID NO: 2, wherein Xaa1 is K]”, the Kd on IgG (setting [4]) was found to be 156 nM. At IgG (setting [5]), the Kd came to 131 nM. In the data set with IgG (SPR), this substance registered a ka of 1.25E+06 and a kd of 0.195.

For the substance “GPDCAYH(Xaa1)GELVWCTFH (SEQ ID NO:2, wherein Xaa1 was arginine and the C-terminus was amidated) (GPDCAYHRGELVWCTFH-NH2; not fully specified (N-terminus, bridges); printed as GPDCAYH(Xaa1)GELVWCTFH; cysteine pairing not given here) [SEQ ID NO: 2, wherein Xaa1 is R]”, the Kd at IgG (setting [4]) came out at 9.1 nM. Further, the Kd on IgG (setting [5]) is 10 nM. Also, in the data set on IgG (SPR), the ka came to 1.57E+06 and the kd was found to be 0.0144.

In the case of “Fmoc-HN-PEG4-GPDCAYH(Xaa1)GELVWCTFH (SEQ ID NO:2, wherein Xaa1 was arginine and the C-terminus was amidated) ({Fmoc-PEG4′}-GPDCAYHRGELVWCTFH-NH2; cysteine pairing not given here) [Peptide b]”, the Kd on IgG (measured as in Example 1, read-out: Kd (affinity for IgG)) stood at 1000 nM.

“DCAYH(Xaa1)GELVWCT (SEQ ID NO:1, wherein Xaa1 was arginine and the C-terminus was amidated) ({Biotin-PEG4′}-DCAYHRGELVWCT-NH2; disulfide 2-12 (inferred)) [SEQ ID NO: 1, wherein Xaa1 is R]”: the Kd on IgG (setting [4]) came to 54 nM; on IgG (setting [5]) it was 64.5 nM. Also, the ka in the data set with IgG (SPR) was determined as 4.57E+05. Also, on IgG (SPR), the kd came to 0.0248.

Turning to “GPDCAYH(Xaa1)GELVWCTFH (SEQ ID NO:2, wherein Xaa1 was arginine and the C-terminus was amidated) ({Biotin-PEG4′}-GPDCAYHRGELVWCTFH-NH2; bridge 4-14; not fully specified (bridges); printed as GPDCAYH(Xaa1)GELVWCTFH) [Peptide a, N-terminally PEG4-modified, C-terminally amidated; cysteine sulfide groups connected via linker from 1,3-dichloro-2-propanone (linker drawing 11)]”, in data set [1], the “alkali resistance (change in DBC by sodium hydroxide treatments)” value is “no decrease in DBC”. In data set [2], the “elution of adsorbed γ-globulin by peptide solution” value was “can be used as a means for elution”. The “usability as ligand for an affinity column (adsorption and acid elution of γ-globulin)” value in data set [3] is recorded as “can be used as a ligand for an affinity column”.

Take “GPDCAYH(Xaa1)GELVWCTFH (SEQ ID NO:2, wherein Xaa1 was acetylated lysine, and the C-terminus was amidated) (GPDCAYHXGELVWCTFH; Xaa1=acetyl-lysine; C-terminal amide; (8)..(8) Xaa is arginine, lysine, leucine, asparagine, or derivative thereof) [SEQ ID NO: 2, wherein Xaa1 is K (Acetyl)]”: the Kd on IgG (setting [4]) came out at 2700 nM; on IgG (setting [5]), 2800 nM. The ka in the data set with IgG (SPR) is recorded as 4.4E+05. The kd at IgG (SPR) was 0.12.

For “GPDCAYH(Xaa1)GELVWCTFH (SEQ ID NO:2, wherein Xaa1 was leucine, and the C-terminus was amidated) ({Biotin-PEG4′}-GPDCAYHLGELVWCTFH-NH2; disulfide 4-14 (inferred)) [SEQ ID NO: 2, wherein Xaa1 is L]”, at IgG (setting [4]), the dissociation constant Kd came to 8.1 nM. In the data set on IgG (SPR), this substance had a ka of 1.7E+05 and a kd of 0.014.
